Source: patent US11167039B2, “MET antibody drug conjugates” (priority 2016, dated 2021)
Entries after “also recorded” stand apart in the source; their conditions may differ.

Legend:
Aspc-1 = assay: Cell killing, Aspc-1; assay type: cell-based, human; parameters: key: Sensitive; Resistant; details: Aspc-1, PANC Ca
Protocol: (§1) Briefly described, 2-3×10^3 cells/well in 100 μL of culture medium may be plated in 96 well plates and incubated overnight at 37° C., 5% CO2. The MET-ADCs, MET antibody(ies), control MMAE or control hIgG4 conjugated to MMAE with cysteine conjugation antibody(ies) may be diluted 1:3 in serum-free culture medium starting from 100 nM (final) in 50 μL as 3× concentrations to the HT-29 cells. At the end of an additional 5-6 days of cell growth at 37° C. in a humidified incubator with 5% CO2, the plates may be equilibrated to room temperature for 30 minutes and 100 μL/well of CellTiter-Glo® reagent (Promega Corp., Fitchburg, Wis.) may then be added to assess cell viability. Cell viability may be determined by measuring luminescence.
(§2) Various tumor cell lines and normal human cells may be tested for MET-ADC induced cell killing activity essentially as described above in Example 10 as assessed for MET receptor density. MET cell surface density was determined by indirect immunofluorescence staining of cell surface antigens on cultured cells using QIFIKIT (Dako). […] Following a forty-five minute incubation, cells may be incubated for 1 hour on ice with FITC conjugated antibody diluted 1:50 in FACS buffer. Then cells may be washed and receptor numbers may be determined by indirect immunofluorescence staining of the QIFIKIT beads using a Becton Dickinson LSRII flow cytometer.

KP-4 = assay: Cell killing, KP-4; assay type: cell-based, human; parameters: key: Sensitive; Resistant; details: KP-4, PANC Ca
Protocol: as §1, §2

BxPC-3 = assay: Cell killing, BxPC-3; assay type: cell-based, human; parameters: key: Sensitive; Resistant; details: BxPC-3, PANC Ca
Protocol: as §1, §2

Panc-1 = assay: Cell killing, Panc-1; assay type: cell-based, human; parameters: key: Sensitive; Resistant; details: Panc-1, PANC Ca
Protocol: as §1, §2

Su.86.86 = assay: Cell killing, Su.86.86; assay type: cell-based, human; parameters: key: Sensitive; Resistant; details: Su.86.86, PANC Ca
Protocol: as §1, §2

HT-29 cells = assay: HT-29 cell-killing assay; assay type: cell-based, human; parameters: key to Sensitive/ Resistant: Sensitive; Resistant
Protocol: Therefore, the HT-29 cell line may be used to determine if test MET-ADCs can kill MET overexpressing tumor cells in vitro.
as §1, §2

HCT-116 = assay: Cell killing, HCT-116; assay type: cell-based, human; parameters: key: Sensitive; Resistant; details: HCT-116, Colorectal Ca
Protocol: as §1, §2

CXF-269L = assay: Cell killing, CXF-269L; assay type: cell-based, human; parameters: key to Sensitive/ Resistant: Sensitive; Resistant
Protocol: as §1, §2

EBC-1 = assay: Cell killing, EBC-1; assay type: cell-based, human; parameters: key: Sensitive; Resistant; details: EBC-1, NSCLC
Protocol: as §1, §2

SNU-5 = assay: Cell killing, SNU-5; assay type: cell-based, human; parameters: key: Sensitive; Resistant; details: SNU-5, Gastric Ca
Protocol: as §1, §2

H441 = assay: Cell killing, H441; assay type: cell-based, human; parameters: key: Sensitive; Resistant; details: H441, NSCLC
Protocol: as §1, §2

HCC827 = assay: Cell killing, HCC827; assay type: cell-based, human; parameters: key: Sensitive; Resistant; details: HCC827, NSCLC
Protocol: as §1, §2

SNU1196 = assay: Cell killing, SNU1196; assay type: cell-based, human; parameters: key: Sensitive; Resistant; details: SNU1196, Cholangiocarcinoma
Protocol: as §1, §2

T47D = assay: Cell killing, T47D; assay type: cell-based, human; parameters: key: Sensitive; Resistant; details: Breast Ca
Protocol: as §1, §2

OV79 = assay: Cell killing, OV79; assay type: cell-based, human; parameters: key: Sensitive; Resistant; details: OV79, Ovarian Ca
Protocol: as §1, §2

PC3 = assay: Cell killing, PC3; assay type: cell-based, human; parameters: key: Sensitive; Resistant; details: PC3, Prostatic Ca
Protocol: as §1, §2

HuAEC = assay: Cell killing, non-tumor HuAEC; assay type: cell-based, human; parameters: key: Sensitive; Resistant; details: aortic endothelia cell
Protocol: as §1, §2

RPTEC = assay: Cell killing, non-tumor RPTEC; assay type: cell-based, human; parameters: key: Sensitive; Resistant; details: renal proximal tubul cell
Protocol: as §1, §2

humen fresh naïve PBMC = assay: Cell killing, fresh naïve PBMC; assay type: cell-based, human; parameters: key: Sensitive; Resistant; details: 3 donors
Protocol: as §1, §2

BxPC-3 xenograft = assay: BxPC-3 pancreatic cancer xenograft model; assay type: in vivo, mouse; details: vs control hIgG4-Lys-ADC
Protocol: Female athymic nude mice age 6- to 7-weeks old are available commercially, including from Harlan Laboratories (Indianapolis, Ind.). The mice are allowed to acclimate for one week and fed ad libitum on a normal low fat (4.5%) diet, which may be continued for the duration of the study. Tumor cells may be purchased from ATCC and may be cultured in cell culture media such as RPMI 1640 (Life Technologies) with L-glutamine, 25 mM HEPES supplemented with 10% FBS and 1 mM Na Pyruvate. Cells may be detached, washed with serum free medium and then resuspended at a final concentration of 50×10^6 cells/mL in serum free RPMI 1640. Tumor cells, approximately 5×10^6, may be injected subcutaneously in the rear flank of subject mice in a 1:1 mixture of serum free growth medium and Matrigel (Becton Dickinson, Bedford, Mass.). Tumor and body weight measurements may be performed twice weekly. Prior to treatment, mice can be randomized based on tumor size using a randomization algorithm. Treatments may be started when the average tumor volume reaches 100 mm^3. […]
MET-ADCs and control hIgG4-MMAE may be prepared in Phosphate Buffered Saline (PBS) prior to dose. Tumor size may be determined by caliper measurements. […] Log volume data can be analyzed with two-way repeated measures ANOVA by time and treatment using SAS PROC MIXED software (SAS Institutes Inc, Cary, N.C.). […]

[1] = test system: colorectal cancer PDX tumors; assay: Colorectal cancer PDX models; assay type: in vivo, mouse; details: 1 or 3 mg/kg weekly, four doses
Excerpt: Body weight can also be assessed regularly.
Colorectal tumor samples from 37 human colorectal cancer patients were individually implanted into different immunocompromised mice (i.e., each mouse carried one tumor derived from a patient's […] tumor) essentially as described above in this Example 13.

## MET-ADC#1: emibetuzumab lysine-conjugated via (2,5-dioxopyrrolidin-1-yl) 2-azidoacetate and Octyne-β-Glucn-MMAE
Aspc-1
  Sensitive/ Resistant: S
KP-4
  Sensitive/ Resistant: S
BxPC-3
  Sensitive/ Resistant: S
Panc-1
  Sensitive/ Resistant: R
Su.86.86
  Sensitive/ Resistant: R
HT-29 cells; HT29, Colorectal Ca
  Sensitive/ Resistant: S
HT-29 cells; HT-29 cells
  cell killing activity in HT-29 cells: kills MET expressing HT-29 tumor cells better than the parental anti-MET antibody, emibetuzumab, free MMAE, or a combination of emibetuzumab and free MMAE; also recorded: highly potent in killing HT-29 cells
  greater potency in killing HT-29 tumors cells as compared to ABBV-399: 200 fold
HCT-116
  Sensitive/ Resistant: R
CXF-269L; CXF-269L (TP53) colon cancer cells
  cell killing activity in CXF-269L cells: killed
CXF-269L; CXF-269L, Colorectal Ca
  Sensitive/ Resistant: S
EBC-1
  Sensitive/ Resistant: S
SNU-5
  Sensitive/ Resistant: S
H441
  Sensitive/ Resistant: S
HCC827
  Sensitive/ Resistant: S
SNU1196
  Sensitive/ Resistant: R
T47D
  Sensitive/ Resistant: R
OV79
  Sensitive/ Resistant: S
PC3
  Sensitive/ Resistant: S
HuAEC
  Sensitive/ Resistant: R
RPTEC
  Sensitive/ Resistant: R
Humen fresh naïve PBMC
  Sensitive/ Resistant: R
BxPC-3 xenograft
  anti-tumor activity: dramatic anti-tumor activity
[1]; 37 PDX
  Complete Response (CR): 5.4%
[1]; vs control hIgG4-ADC
  activity in colorectal cancer PDX models: little activity
